Laboratory results reported in patent US7323481B2, “Thiazolidinediones alone or in combination with other therapeutic agents for inhibiting or reducing tumour growth” (Hoffmann-La Roche Inc., priority 2001, dated 2008).

What was measured:
[1] = tested on: CX-1 human colon carcinoma cells; assay: CX-1 human colon carcinoma xenograft in SCID beige mice: tumor volume and pulmonal micrometastases; type: in vivo; conditions: for Inhibition relative to vehicle group (tumor volume): day 45; for Mean tumor volume: measured on day 45; for Number of metastases: lung micrometastases per group, histology after autopsy; for Effect on metastatic load: human xenograft models
Method: (§1) Female SCID beige mice were inoculated subcutaneously with 1×10^6 CX-1 human colon carcinoma cells. For 42 days 10 animals per group were orally treated with troglitazone, BM 13.1258 or BM 15.2054 (suspension in 0.5% methylcellulose). The development of tumor volume (measured in mm^3) was determined on day 45. Furthermore, following autopsy the lungs were histologically inspected for micrometastases. Inhibition of tumor growth and inhibition of number of pulmonal metastases were calculated as 100 minus tumor volume or number of metastases of the test group divided by that of the vehicle group expressed as a percentage. PPAR gamma stimulating activity of the compounds alone and in combination with the RXR specific agonist 9-cis retinoic acid were determined in accordance with a known method (Furnsinn, C., et al., Br. J. Pharmacol. 128 (1999) 1141-1148). The relative activation of PPAR-mediated gene expression is given as x-fold stimulation compared to DMSO-treated cells (activation=1).

PPAR gamma = molecular target: T1, PPAR gamma (Homo sapiens, UniProt P37231); assay: PPAR gamma stimulating activity (PPAR-mediated gene expression), alone and with 9-cis retinoic acid; type: cell-based; conditions: DMSO-treated cells = 1
T1 sequence (P37231 1-505): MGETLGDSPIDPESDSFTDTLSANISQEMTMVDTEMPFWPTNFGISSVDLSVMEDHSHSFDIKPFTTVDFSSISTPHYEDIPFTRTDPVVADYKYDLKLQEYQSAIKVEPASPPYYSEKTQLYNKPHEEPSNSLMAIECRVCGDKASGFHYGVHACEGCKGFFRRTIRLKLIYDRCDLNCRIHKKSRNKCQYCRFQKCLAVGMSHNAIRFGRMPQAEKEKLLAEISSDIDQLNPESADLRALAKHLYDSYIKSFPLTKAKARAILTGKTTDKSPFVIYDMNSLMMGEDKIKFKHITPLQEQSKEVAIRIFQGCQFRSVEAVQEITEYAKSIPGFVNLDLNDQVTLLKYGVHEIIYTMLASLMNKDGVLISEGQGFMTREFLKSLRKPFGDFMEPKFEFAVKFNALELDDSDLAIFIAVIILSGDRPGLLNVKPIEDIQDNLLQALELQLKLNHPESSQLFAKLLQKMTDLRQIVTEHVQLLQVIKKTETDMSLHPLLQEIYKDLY
Method: as §1

[2] = tested on: human cancer cells (breast cancer, colon cancer, prostate cancer); assay: Inhibition of cell proliferation in human cancer cells; type: cell-based; conditions: human cancer cells of various tissue origins, e.g. breast, colon and prostate cancer
[3] = thiazolidinedione 10^−6 M in combination with 9-cis RA 10^−6 M
[4] = thiazolidinedione 10^−6 M, no 9-cis RA
[5] = thiazolidinedione 10^−7 M in combination with 9-cis RA 10^−6 M
[6] = thiazolidinedione 10^−7 M, no 9-cis RA

Cc1oc(-c2cccs2)nc1CCOc1ccc(CC2SC(=O)NC2=O)c2sccc12 (stereo not drawn) [BM 15.2054, 5-{4-[2-(5-Methyl-2-(thien-2-yl)oxazol-4-yl)-ethoxy]-benzo[b]thiophen-7-ylmethyl}-thiazolidine-2,4-dione]
Inhibition relative to vehicle group (number of metastases) ([1]; 10 mg/kg oral for 42 days): 34% | Inhibition relative to vehicle group (tumor volume) ([1]; 10 mg/kg oral for 42 days): 30% | Mean tumor volume ([1]; 10 mg/kg oral for 42 days): 702 mm^3 | Number of metastases ([1]; 10 mg/kg oral for 42 days): 216 | Inhibition relative to vehicle group (number of metastases) ([1]; 50 mg/kg oral for 42 days): 32% | Inhibition relative to vehicle group (tumor volume) ([1]; 50 mg/kg oral for 42 days): 28% | Mean tumor volume ([1]; 50 mg/kg oral for 42 days): 719 mm^3 | Number of metastases ([1]; 50 mg/kg oral for 42 days): 223 | Number of lung metastases compared to the vehicle group ([1]; Table 2): significantly (p<0.05) reduced | Effect on metastatic load [1]: reduce the metastatic load | Relative activation of PPAR-mediated gene expression (PPAR gamma; [3]): 18.5 x-fold | Relative activation of PPAR-mediated gene expression (PPAR gamma; [4]): 3.5 x-fold | Relative activation of PPAR-mediated gene expression (PPAR gamma; [5]): 15.6 x-fold | Relative activation of PPAR-mediated gene expression (PPAR gamma; [6]): 4.3 x-fold | Inhibition of cell proliferation [2]: inhibit cell proliferation

CC1=C(/C=C/C(C)=C\C=C\C(C)=C\C(=O)O)C(C)(C)CCC1 [9-cis RA, 9-cis retinoic acid, reference compound]
Relative activation of PPAR-mediated gene expression (PPAR gamma; 9-cis RA 10^−6 M, no thiazolidinedione): 4.1 x-fold

Cc1oc(-c2ccccc2)nc1CCOc1ccc(CC2SC(=O)NC2=O)c2sccc12 (stereo not drawn) [BM 13.1258, 5-{4-[2-(5-Methyl-2-phenyloxazol-4-yl) -ethoxy]-benzo[b]thiophen-7-ylmethyl}-thiazolidine-2,4-dione]
Inhibition relative to vehicle group (tumor volume) ([1]; 50 mg/kg oral for 42 days): 40% | Mean tumor volume ([1]; 50 mg/kg oral for 42 days): 604 mm^3 | Anti-tumor effect compared with troglitazone ([1]; SCID beige mice, Table 1): superior to that of troglitazone | Reduction of size of colon carcinoma ([1]; SCID beige mice, Table 1): effective in reducing the size of colon carcinoma | Effect on metastatic load [1]: reduce the metastatic load | Relative activation of PPAR-mediated gene expression (PPAR gamma; [3]): 28.0 x-fold | Relative activation of PPAR-mediated gene expression (PPAR gamma; [4]): 4.0 x-fold | Relative activation of PPAR-mediated gene expression (PPAR gamma; [5]): 24.4 x-fold | Relative activation of PPAR-mediated gene expression (PPAR gamma; [6]): 3.7 x-fold | Inhibition of cell proliferation [2]: inhibit cell proliferation

Cc1c(C)c2c(c(C)c1O)CCC(C)(COc1ccc(CC3SC(=O)NC3=O)cc1)O2 (stereo not drawn) [Troglitazone, troglitazone, reference compound]
Inhibition relative to vehicle group (number of metastases) ([1]; 200 mg/kg oral for 42 days): −8% | Inhibition relative to vehicle group (tumor volume) ([1]; 200 mg/kg oral for 42 days): 20% | Mean tumor volume ([1]; 200 mg/kg oral for 42 days): 804 mm^3 | Number of metastases ([1]; 200 mg/kg oral for 42 days): 352
